{"source": "ChEMBL document CHEMBL2010689", "about": "(J Med Chem, 2012)", "key": {"P388 [1]": {"test_system": "P388", "experiment": "Antitumor activity against mouse P388 cells xenografted in DBA/2 mouse assessed as mean survival at 30 mg/kg, po qd for 14 days followed by readministeration after 7 days", "assay_type": "functional"}, "[2]": {"target": "Proto-oncogene tyrosine-protein kinase Src (Homo sapiens, UniProt P12931)", "sequence (P12931 2-536 limits assumed)": "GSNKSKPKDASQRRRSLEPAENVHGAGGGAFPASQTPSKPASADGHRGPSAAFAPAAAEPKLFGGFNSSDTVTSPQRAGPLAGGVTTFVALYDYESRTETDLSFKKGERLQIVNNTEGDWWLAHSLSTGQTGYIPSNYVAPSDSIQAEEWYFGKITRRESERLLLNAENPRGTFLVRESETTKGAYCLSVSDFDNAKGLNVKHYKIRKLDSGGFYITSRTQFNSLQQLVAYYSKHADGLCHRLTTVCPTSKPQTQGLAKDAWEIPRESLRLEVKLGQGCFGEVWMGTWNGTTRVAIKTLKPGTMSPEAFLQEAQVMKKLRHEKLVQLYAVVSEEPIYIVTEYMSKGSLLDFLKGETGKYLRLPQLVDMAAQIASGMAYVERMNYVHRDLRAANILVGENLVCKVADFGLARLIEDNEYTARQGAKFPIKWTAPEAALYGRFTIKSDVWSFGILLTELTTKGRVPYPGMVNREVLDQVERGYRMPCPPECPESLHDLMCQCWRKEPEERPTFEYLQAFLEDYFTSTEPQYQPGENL", "experiment": "Inhibition of human cSrc using ATP as substrate"}, "[3]": {"target": "Proto-oncogene tyrosine-protein kinase receptor Ret (Homo sapiens, UniProt P07949)", "experiment": "Inhibition of human RET using ATP as substrate"}, "[4]": {"target": "Vascular endothelial growth factor receptor 2 (Homo sapiens, UniProt P35968)", "sequence (P35968 whole entry)": "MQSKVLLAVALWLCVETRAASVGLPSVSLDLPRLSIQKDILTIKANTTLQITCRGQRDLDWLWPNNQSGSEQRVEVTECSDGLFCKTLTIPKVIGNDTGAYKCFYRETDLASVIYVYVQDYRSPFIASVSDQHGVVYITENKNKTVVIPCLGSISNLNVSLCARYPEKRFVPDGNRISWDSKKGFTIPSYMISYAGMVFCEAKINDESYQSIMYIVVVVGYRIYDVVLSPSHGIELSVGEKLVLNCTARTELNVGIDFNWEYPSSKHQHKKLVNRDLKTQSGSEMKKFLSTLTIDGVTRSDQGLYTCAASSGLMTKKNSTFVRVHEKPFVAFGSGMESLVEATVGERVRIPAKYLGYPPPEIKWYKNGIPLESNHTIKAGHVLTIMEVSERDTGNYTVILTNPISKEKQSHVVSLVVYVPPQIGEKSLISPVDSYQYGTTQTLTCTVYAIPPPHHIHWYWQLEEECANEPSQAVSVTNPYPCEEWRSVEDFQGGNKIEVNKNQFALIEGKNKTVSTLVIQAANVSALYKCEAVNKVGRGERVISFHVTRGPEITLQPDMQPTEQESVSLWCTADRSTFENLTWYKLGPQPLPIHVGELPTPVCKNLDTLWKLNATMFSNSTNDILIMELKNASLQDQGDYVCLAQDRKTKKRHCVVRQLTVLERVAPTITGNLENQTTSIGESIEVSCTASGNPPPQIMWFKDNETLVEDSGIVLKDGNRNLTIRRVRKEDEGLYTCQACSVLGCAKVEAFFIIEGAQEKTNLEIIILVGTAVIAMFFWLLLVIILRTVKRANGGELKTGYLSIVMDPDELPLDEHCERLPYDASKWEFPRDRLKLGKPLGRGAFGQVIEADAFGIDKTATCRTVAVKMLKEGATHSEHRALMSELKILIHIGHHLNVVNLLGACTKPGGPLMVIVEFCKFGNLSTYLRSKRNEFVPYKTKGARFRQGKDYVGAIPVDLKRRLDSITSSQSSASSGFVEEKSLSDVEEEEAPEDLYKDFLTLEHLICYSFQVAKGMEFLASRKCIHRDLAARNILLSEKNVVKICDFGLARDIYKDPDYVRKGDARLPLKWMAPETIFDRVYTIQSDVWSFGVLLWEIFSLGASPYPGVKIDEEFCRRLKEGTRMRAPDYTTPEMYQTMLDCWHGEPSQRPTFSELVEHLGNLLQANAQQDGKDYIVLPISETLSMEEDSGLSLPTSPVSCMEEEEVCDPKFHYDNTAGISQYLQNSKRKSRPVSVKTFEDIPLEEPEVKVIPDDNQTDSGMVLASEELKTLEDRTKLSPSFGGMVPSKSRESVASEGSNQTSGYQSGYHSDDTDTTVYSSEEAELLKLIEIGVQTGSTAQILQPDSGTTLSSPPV"}, "[5]": {"experiment": "Antitumor activity against human U251MG cells xenografted in athymic nude mouse assessed as complete tumor regression at 30 mg/kg, po bid", "assay_type": "functional, U-251"}, "[6]": {"experiment": "Antitumor activity against human U251MG cells xenografted in athymic nude mouse assessed as complete tumor regression at 10 mg/kg, po bid", "assay_type": "functional, U-251"}, "[7]": {"experiment": "Cmax in cynomolgus monkey at 3 mg/kg, po", "assay_type": "ADME, organism-based, Macaca fascicularis", "set-up": "dose 3 mg/kg, route oral", "details": "in vivo"}, "[8]": {"target": "Receptor-type tyrosine-protein kinase FLT3 (Homo sapiens, UniProt P36888)", "experiment": "Inhibition of human FLT3 using ATP as substrate"}, "HUVEC [9]": {"test_system": "HUVEC", "experiment": "Antiangiogenic activity in HUVEC assessed as inhibition of FGF-induced survival", "assay_type": "functional, cell-based", "details": "Homo sapiens"}, "[10]": {"target": "Serine/threonine-protein kinase Chk2 (Homo sapiens, UniProt O96017)", "experiment": "Inhibition of human CHK2 using ATP as substrate"}, "[11]": {"target": "Macrophage colony-stimulating factor 1 receptor (Homo sapiens, UniProt P07333)", "experiment": "Inhibition of human FMS using ATP as substrate"}, "HUVEC [12]": {"test_system": "HUVEC", "experiment": "Cytotoxicity against HUVEC", "assay_type": "cell-based", "details": "human"}, "[13]": {"experiment": "Antitumor activity against human U251MG cells xenografted in athymic nude mouse assessed as tumor growth inhibition at 1 mg/kg, po bid measured on day 29 relative to control", "assay_type": "functional", "details": "U-251, 696 h, read-out: GI"}, "A-375 [14]": {"test_system": "A-375", "experiment": "Antitumor activity against human A375 cells xenografted in athymic nude mouse assessed as partial tumor regression at 3 mg/kg, po bid", "assay_type": "functional"}, "[15]": {"target": "Vascular endothelial growth factor receptor 1 (Homo sapiens, UniProt P17948)", "sequence (P17948 whole entry)": "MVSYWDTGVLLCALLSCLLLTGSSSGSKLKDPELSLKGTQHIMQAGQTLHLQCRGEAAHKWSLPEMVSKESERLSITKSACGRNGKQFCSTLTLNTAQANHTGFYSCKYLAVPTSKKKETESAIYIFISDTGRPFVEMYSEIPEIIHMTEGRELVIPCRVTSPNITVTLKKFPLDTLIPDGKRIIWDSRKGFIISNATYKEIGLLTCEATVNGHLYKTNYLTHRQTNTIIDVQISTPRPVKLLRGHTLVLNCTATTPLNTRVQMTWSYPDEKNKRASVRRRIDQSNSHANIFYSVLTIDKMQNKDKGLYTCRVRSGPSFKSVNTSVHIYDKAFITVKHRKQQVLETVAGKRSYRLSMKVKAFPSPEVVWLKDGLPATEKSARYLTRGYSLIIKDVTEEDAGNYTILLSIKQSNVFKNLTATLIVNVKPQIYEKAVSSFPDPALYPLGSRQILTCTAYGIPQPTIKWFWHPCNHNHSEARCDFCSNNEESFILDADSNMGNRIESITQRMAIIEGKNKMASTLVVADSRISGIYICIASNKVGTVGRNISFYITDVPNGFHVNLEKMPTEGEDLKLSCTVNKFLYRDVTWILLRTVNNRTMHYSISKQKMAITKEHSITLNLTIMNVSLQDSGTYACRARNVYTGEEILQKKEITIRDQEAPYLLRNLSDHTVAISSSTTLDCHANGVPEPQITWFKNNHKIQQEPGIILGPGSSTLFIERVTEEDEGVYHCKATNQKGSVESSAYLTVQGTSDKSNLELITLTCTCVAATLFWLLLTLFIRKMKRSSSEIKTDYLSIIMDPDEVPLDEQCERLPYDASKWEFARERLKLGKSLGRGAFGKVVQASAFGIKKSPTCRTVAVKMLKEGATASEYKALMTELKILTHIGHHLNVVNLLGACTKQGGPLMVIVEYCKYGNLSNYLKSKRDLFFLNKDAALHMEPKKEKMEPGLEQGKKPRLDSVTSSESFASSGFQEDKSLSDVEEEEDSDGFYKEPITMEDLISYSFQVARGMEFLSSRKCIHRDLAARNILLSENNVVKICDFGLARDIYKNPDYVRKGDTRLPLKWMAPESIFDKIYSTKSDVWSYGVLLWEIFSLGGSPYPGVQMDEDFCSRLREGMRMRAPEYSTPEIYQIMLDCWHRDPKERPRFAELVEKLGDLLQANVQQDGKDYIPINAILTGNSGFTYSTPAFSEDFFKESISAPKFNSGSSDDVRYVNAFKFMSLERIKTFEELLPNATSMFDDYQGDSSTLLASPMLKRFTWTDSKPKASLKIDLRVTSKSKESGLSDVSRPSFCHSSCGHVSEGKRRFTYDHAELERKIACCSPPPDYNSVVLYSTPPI", "experiment": "Inhibition of human VEGFR1 using ATP as substrate"}, "[16]": {"target": "BDNF/NT-3 growth factors receptor (Homo sapiens, UniProt Q16620)", "experiment": "Inhibition of human TRK-B using ATP as substrate"}, "Mus musculus": {"test_system": "Mus musculus", "experiment": "Toxicity in athymic nude mouse bearing human A375 cells assessed as morbidity at 0.1 to 10 mg/kg, po", "assay_type": "organism-based, A-375", "set-up": "dose 0.1-10 mg/kg, route oral", "details": "in vivo"}, "[17]": {"experiment": "Cmax in athymic nude mouse tumor xenografted with human A375 cells at 10 mg/kg, po"}, "[18]": {"target": "Tyrosine-protein kinase JAK2 (Homo sapiens) (UniProt O60674)", "experiment": "Inhibition of JAK2 at 1 uM"}, "[19]": {"experiment": "AUC in Sprague-Dawley rat at 5 mg/kg, po", "assay_type": "ADME, organism-based", "set-up": "dose 5 mg/kg, route oral", "details": "plasma"}, "[20]": {"experiment": "Half life in cynomolgus monkey at 3 mg/kg, po", "assay_type": "ADME, organism-based, Macaca fascicularis", "set-up": "dose 3 mg/kg, route oral", "details": "in vivo"}, "[21]": {"experiment": "Antiangiogenic activity in HMVEC assessed as inhibition of FGF-induced proliferation", "assay_type": "functional", "details": "Homo sapiens"}, "A-375 [22]": {"test_system": "A-375", "experiment": "Antitumor activity against human A375 cells xenografted in athymic nude mouse assessed as partial tumor regression at 0.3 mg/kg, po bid"}, "[23]": {"target": "Voltage-gated inwardly rectifying potassium channel KCNH2 (Homo sapiens, UniProt Q12809)", "sequence (Q12809 whole entry)": "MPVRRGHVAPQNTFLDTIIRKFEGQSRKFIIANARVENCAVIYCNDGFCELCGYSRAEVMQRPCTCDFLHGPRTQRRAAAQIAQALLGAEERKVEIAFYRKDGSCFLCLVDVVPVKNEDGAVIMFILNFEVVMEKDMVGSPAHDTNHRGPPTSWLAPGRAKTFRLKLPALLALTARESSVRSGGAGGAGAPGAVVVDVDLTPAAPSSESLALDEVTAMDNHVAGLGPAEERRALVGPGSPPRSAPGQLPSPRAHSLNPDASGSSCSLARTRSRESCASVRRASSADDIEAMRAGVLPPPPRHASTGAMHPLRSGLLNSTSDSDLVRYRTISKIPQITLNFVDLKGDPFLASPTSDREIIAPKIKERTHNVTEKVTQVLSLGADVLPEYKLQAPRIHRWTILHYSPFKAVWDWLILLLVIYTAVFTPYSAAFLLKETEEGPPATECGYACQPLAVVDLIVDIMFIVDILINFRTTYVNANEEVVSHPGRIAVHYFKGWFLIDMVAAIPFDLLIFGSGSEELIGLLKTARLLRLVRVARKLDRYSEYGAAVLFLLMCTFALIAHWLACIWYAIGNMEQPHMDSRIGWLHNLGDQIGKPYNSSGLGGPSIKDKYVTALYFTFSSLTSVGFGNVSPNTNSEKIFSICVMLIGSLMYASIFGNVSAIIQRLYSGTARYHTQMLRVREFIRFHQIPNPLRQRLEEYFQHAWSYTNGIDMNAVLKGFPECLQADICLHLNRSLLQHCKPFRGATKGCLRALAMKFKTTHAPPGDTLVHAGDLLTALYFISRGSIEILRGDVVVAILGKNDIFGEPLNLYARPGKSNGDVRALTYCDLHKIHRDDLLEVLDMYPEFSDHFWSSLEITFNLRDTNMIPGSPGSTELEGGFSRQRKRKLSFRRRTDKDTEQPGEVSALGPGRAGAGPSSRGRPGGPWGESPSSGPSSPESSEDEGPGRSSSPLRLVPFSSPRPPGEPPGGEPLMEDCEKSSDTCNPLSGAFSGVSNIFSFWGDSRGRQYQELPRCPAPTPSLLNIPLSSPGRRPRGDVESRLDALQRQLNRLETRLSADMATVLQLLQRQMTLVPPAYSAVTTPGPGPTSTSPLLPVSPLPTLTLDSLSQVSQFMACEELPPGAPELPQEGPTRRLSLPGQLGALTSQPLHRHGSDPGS", "experiment": "Inhibition of human Erg expressed CHO cells", "assay_type": "cell-based"}, "[24]": {"experiment": "Toxicity in dog purkinje fibres assessed as drug-induced QT interval change", "assay_type": "tissue-based, Canis lupus familiaris, Purkinje fiber"}, "[25]": {"target": "Substance-P receptor (Homo sapiens) (UniProt P25103)", "experiment": "Inhibition of neurokinin NK1 receptor at 10 uM"}, "Aurora kinase A": {"target": "Aurora kinase A (Homo sapiens, UniProt O14965)", "experiment": "Inhibition of human Aurora-A using ATP as substrate"}, "A-375 [26]": {"test_system": "A-375", "experiment": "Antitumor activity against human A375 cells xenografted in athymic nude mouse assessed as tumor growth inhibition at 0.3 mg/kg, po bid measured on day 29 relative to control", "assay_type": "functional", "details": "A-375, 696 h, read-out: GI"}, "HUVEC [27]": {"test_system": "HUVEC", "experiment": "Antiangiogenic activity in HUVEC assessed as inhibition of FGF-induced migration", "assay_type": "functional, cell-based", "details": "Homo sapiens"}, "[28]": {"experiment": "Antitumor activity against human U251MG cells xenografted in athymic nude mouse assessed as partial tumor regression at 30 mg/kg, po bid", "assay_type": "functional, U-251"}, "[29]": {"experiment": "Antiangiogenic activity in HMVEC assessed as inhibition of VEGF-induced proliferation", "assay_type": "functional", "details": "Homo sapiens"}, "[30]": {"target": "RAC-alpha serine/threonine-protein kinase (Homo sapiens) (UniProt P31749)", "experiment": "Inhibition of PKB at 1 uM"}, "[31]": {"experiment": "Clearance in cynomolgus monkey at 0.5 mg/kg, iv", "assay_type": "ADME, organism-based, Macaca fascicularis", "set-up": "dose 0.5 mg/kg, route intravenous", "details": "in vivo"}, "[32]": {"experiment": "Cmax in athymic nude mouse plasma xenografted with human A375 cells at 10 mg/kg, po"}, "P388 [33]": {"test_system": "P388", "experiment": "Antitumor activity against mouse P388 cells xenografted in DBA/2 mouse assessed as mean survival at 30 mg/kg, po qd (reference value: 14 days)", "assay_type": "functional"}, "HUVEC [34]": {"test_system": "HUVEC", "experiment": "Antiangiogenic activity in HUVEC assessed as inhibition of VEGF-induced proliferation", "assay_type": "functional, cell-based", "details": "Homo sapiens"}, "[35]": {"target": "Tyrosine-protein kinase BTK (Homo sapiens, UniProt Q06187)", "sequence (Q06187 whole entry)": "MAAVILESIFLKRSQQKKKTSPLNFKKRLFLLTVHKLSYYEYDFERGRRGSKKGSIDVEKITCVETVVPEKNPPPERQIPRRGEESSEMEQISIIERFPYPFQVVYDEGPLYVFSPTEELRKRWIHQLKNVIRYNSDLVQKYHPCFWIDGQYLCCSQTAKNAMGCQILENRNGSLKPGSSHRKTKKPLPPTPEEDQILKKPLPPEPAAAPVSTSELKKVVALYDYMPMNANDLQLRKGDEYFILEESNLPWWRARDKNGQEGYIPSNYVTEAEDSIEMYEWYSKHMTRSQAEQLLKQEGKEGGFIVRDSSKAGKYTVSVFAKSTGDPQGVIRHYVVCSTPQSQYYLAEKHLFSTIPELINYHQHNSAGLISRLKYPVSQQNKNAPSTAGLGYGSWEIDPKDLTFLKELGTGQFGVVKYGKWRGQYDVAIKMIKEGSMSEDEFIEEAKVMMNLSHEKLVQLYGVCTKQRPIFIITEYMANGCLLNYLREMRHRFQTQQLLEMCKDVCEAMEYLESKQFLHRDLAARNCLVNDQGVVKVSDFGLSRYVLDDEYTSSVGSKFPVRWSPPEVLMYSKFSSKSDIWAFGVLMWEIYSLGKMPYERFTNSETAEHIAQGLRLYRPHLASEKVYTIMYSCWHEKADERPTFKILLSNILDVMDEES", "experiment": "Inhibition of human BTK using ATP as substrate"}, "[36]": {"experiment": "Inhibition of Mek at 1 uM"}, "[37]": {"target": "Tyrosine-protein kinase ABL1 (Homo sapiens) (UniProt P00519)", "experiment": "Inhibition of ABL at 1 uM"}, "[38]": {"target": "ALK tyrosine kinase receptor (Homo sapiens, UniProt Q9UM73)", "experiment": "Inhibition of human ALK using ATP as substrate"}, "[39]": {"experiment": "Terminal half life in Sprague-Dawley rat at 0.8 mg/kg, iv", "assay_type": "ADME, organism-based", "set-up": "dose 0.8 mg/kg, route intravenous", "details": "in vivo, read-out: beta t1/2 (converted)"}, "[40]": {"target": "Fibroblast growth factor receptor 3 (Homo sapiens, UniProt P22607)", "experiment": "Inhibition of human FGFR3 using ATP as substrate"}, "[41]": {"experiment": "Metabolic stability in human liver S9 fraction assessed as compound remaining after 2 hrs", "assay_type": "ADME, subcellular", "details": "read-out: Stability"}, "[42]": {"experiment": "Oral bioavailability in Sprague-Dawley rat at 5 mg/kg", "assay_type": "ADME, organism-based", "details": "in vivo"}, "[43]": {"experiment": "Antitumor activity against human U251MG cells xenografted in athymic nude mouse assessed as complete tumor regression at 3 mg/kg, po bid", "assay_type": "functional, U-251"}, "[44]": {"target": "Casein kinase I isoform alpha (Homo sapiens, UniProt P48729)", "experiment": "Inhibition of CK1 using ATP as substrate"}, "A-375 [45]": {"test_system": "A-375", "experiment": "Antitumor activity against human A375 cells xenografted in athymic nude mouse assessed as partial tumor regression at 1 mg/kg, po bid", "assay_type": "functional"}, "[46]": {"experiment": "Antitumor activity against human U251MG cells xenografted in athymic nude mouse assessed as partial tumor regression at 1 mg/kg, po bid", "assay_type": "functional, U-251"}, "[47]": {"experiment": "AUC in cynomolgus monkey at 3 mg/kg, po", "assay_type": "ADME, organism-based, Macaca fascicularis", "set-up": "dose 3 mg/kg, route oral", "details": "plasma"}}, "note": "Active and inactive are the calls of the source. The calls are words filed in the database; no cut-off is given here."}
{"smiles": "CC(C)Cn1c2ccc(Nc3ncccn3)cc2c2c3c(c4c(c21)CCc1nn(C)cc1-4)C(=O)NC3", "note": "[CEP-11981]", "values": [{"measurement": "MSD", "setting": "P388 [1]", "result": 23.5, "unit": "days"}, {"measurement": "IC50", "setting": "[2]", "result": 37, "unit": "nM"}, {"measurement": "IC50", "setting": "[3]", "result": 5, "unit": "nM"}, {"measurement": "IC50", "setting": "[4]", "result": 4, "unit": "nM"}, {"measurement": "Activity", "setting": "[5]", "result": 0, "unit": "%"}, {"measurement": "Activity", "setting": "[6]", "result": 0, "unit": "%"}, {"measurement": "Cmax", "setting": "[7]", "result": 491, "unit": "ng/mL"}, {"measurement": "IC50", "setting": "[8]", "result": 71, "unit": "nM"}, {"measurement": "EC50", "setting": "HUVEC [9]", "result": 8, "unit": "nM"}, {"measurement": "IC50", "setting": "[10]", "result": 140, "unit": "nM"}, {"measurement": "IC50", "setting": "[11]", "result": 78, "unit": "nM"}, {"measurement": "Activity", "setting": "HUVEC [12]", "result": "Non-toxic"}, {"measurement": "inhibition in vivo at 1 mg/kg", "setting": "[13]", "result": 43, "unit": "%"}, {"measurement": "Activity", "setting": "A-375 [14]", "result": 11, "unit": "%"}, {"measurement": "IC50", "setting": "[15]", "result": 3, "unit": "nM"}, {"measurement": "IC50", "setting": "[16]", "result": 5, "unit": "nM"}, {"measurement": "Activity", "setting": "Mus musculus", "result": "Non-toxic"}, {"measurement": "Cmax", "setting": "[17]", "result": 140, "unit": "ng/g"}, {"measurement": "inhibition", "setting": "[18]", "result": "Active"}, {"measurement": "AUC", "setting": "[19]", "result": 8560, "unit": "ng·h/mL"}, {"measurement": "half-life", "setting": "[20]", "result": 2.4, "unit": "h"}, {"measurement": "EC50", "setting": "[21]", "result": 8, "unit": "nM"}, {"measurement": "Activity", "setting": "A-375 [22]", "result": 20, "unit": "%"}, {"measurement": "IC50", "setting": "[23]", "result": 20000, "unit": "nM"}, {"measurement": "Activity", "setting": "[24]", "result": "Non-toxic"}, {"measurement": "inhibition", "setting": "[25]", "result": "> 80", "unit": "%"}, {"measurement": "IC50", "setting": "Aurora kinase A", "result": 42, "unit": "nM"}, {"measurement": "inhibition in vivo at 0.3 mg/kg", "setting": "A-375 [26]", "result": 71, "unit": "%"}, {"measurement": "EC50", "setting": "HUVEC [27]", "result": 8, "unit": "nM"}, {"measurement": "Activity", "setting": "[28]", "result": 44, "unit": "%"}, {"measurement": "EC50", "setting": "[29]", "result": 8, "unit": "nM"}, {"measurement": "inhibition", "setting": "[30]", "result": "Active"}, {"measurement": "clearance", "setting": "[31]", "result": 18, "unit": "mL/min/kg"}, {"measurement": "Cmax", "setting": "[32]", "result": 456, "unit": "ng/mL"}, {"measurement": "MSD", "setting": "P388 [33]", "result": 23, "unit": "days"}, {"measurement": "EC50", "setting": "HUVEC [34]", "result": 8, "unit": "nM"}, {"measurement": "IC50", "setting": "[35]", "result": 93, "unit": "nM"}, {"measurement": "inhibition", "setting": "[36]", "result": "Active"}, {"measurement": "inhibition", "setting": "[37]", "result": "Active"}, {"measurement": "IC50", "setting": "[38]", "result": 132, "unit": "nM"}, {"measurement": "half-life", "setting": "[39]", "result": 1.9, "unit": "h"}, {"measurement": "IC50", "setting": "[40]", "result": 89, "unit": "nM"}, {"measurement": "remaining at 2 h", "setting": "[41]", "result": 79, "unit": "%"}, {"measurement": "bioavailability", "setting": "[42]", "result": 44, "unit": "%"}, {"measurement": "Activity", "setting": "[43]", "result": 0, "unit": "%"}, {"measurement": "IC50", "setting": "[44]", "result": 48, "unit": "nM"}, {"measurement": "Activity", "setting": "A-375 [45]", "result": 10, "unit": "%"}, {"measurement": "Activity", "setting": "[46]", "result": 0, "unit": "%"}, {"measurement": "AUC", "setting": "[47]", "result": 2480, "unit": "ng·h/mL"}]}
